For test [1], the target named is T1, Na^+,K^+ -ATPase (Homo sapiens, UniProt P05023).
T1 construct: Na^+,K^+ -ATPase receptor purified according to Jorghensen; from tissue
The test can be described thus: inhibition of the activity of the purified Na+,K+-ATPase (% hydrolysis of 32P-ATP). Format: biochemical. From the text: (§1) To test the affinity for the receptor site of the Na^+,K^+ -ATPase and the agonist or antagonist activity on the enzyme, the following tests were used:
b) inhibition of the activity of the purified Na^+,K^+ -ATPase measured as % of hydrolysis of ^32 P-ATP in presence and in absence of the tested compound (Doucet A. et al., Am. J. Physiol., 1986, 251, F851)

The target of test [2] is T1, Na^+,K^+ -ATPase. The test can be described thus: displacement of the specific 3H-ouabain binding from the purified Na+,K+-ATPase receptor.
Source text: as §1
a) displacement of the specific ^3 H-ouabain binding from the Na^+,K^+ -ATPase receptor purified according to Jorghensen (Jorghensen P., BBA, 1974, 356, 36) and Erdmann (Erdmann E. et al., Arzneim. Forsh., 1984, 34, 1314);

Test [3] deals with spontaneous hypertensive rats (MHS). The test can be described thus: effect of 5 week-treatment on the development of hypertension; SBP and HR by tail cuff method. Particulars: 20 mg/Kg/os daily in Methocel 0.5%, 5 weeks; for SBP: n=7, controls 172 +/- 5,0; for HR: n=7, controls 380 +/- 6,3. Format: in vivo, rat (MHS). The method, then: Systolic blood pressure (SBP) and heart rate (HR) were measured, by the tail cuff method, in young prehypertensive male rats (MHS or SHR) strains before the development of hypertension (4 weeks of age) for recording the basal values of SBP. Groups of 7 rats were formed and subdivided in control and treated groups. The compound, suspended in Methocel 0.5% (w/v), was orally given daily for at least 5 weeks to the treated groups. The control group received only Methocel.
SBP and HR were measured weekly 6 and 24 hrs after treatment. After 5 weeks of treatment, when hypertension was fully developed in the control group (9 weeks of age), washout was started for at least one week, to verify whether the treatment maintained blood pressure low or reestablished the basal values.

Where [4] appears, read: 32P-ATP hydrolysis, purified Na+,K+-ATPase, read-out: Inhibitory Activity log IC50 (converted).
Where [5] appears, read: 3H-ouabain, purified Na+,K+-ATPase, read-out: Binding 3H-Ouab. Displacement log IC50 (converted).

Counter-ions that a name gives are not always drawn.

`CN(C)CCO/N=C/[C@H]1CC[C@]2(O)C[C@@H](c3ccccc3)CC[C@]12C` [I-ap, (1S,3aS,5S,7aR)-1-[(E)-2-Dimethylaminoethoxyimino]methyl-5-phenyl-7a-methylperhydroinden-3a-ol]: the IC50 on Na^+,K^+ -ATPase [1] (setting [4]) was 39.8 µM. Further, the IC50 on Na^+,K^+ -ATPase [2] (setting [5]) was 2 µM. In test [3], the SBP was 155 +/- 4,3 mm Hg and the HR is recorded as 370 +/- 10,5 bEATS/min.

In the case of `CN(C)CCO/N=C/[C@H]1CC[C@]2(O)C[C@@H](c3cccc(O)c3)CC[C@]12C` [I-au, (1S,3aS,5S,7aR)-1-[(E)-2-Dimethylaminoethoxyimino]methyl-5-(3-hydroxyphenyl)-7a-methylperhydroinden-3a-ol], the IC50 at Na^+,K^+ -ATPase [1] (setting [4]) was 50.1 µM; on Na^+,K^+ -ATPase [2] (setting [5]), 6.31 µM.

As to `CN(C)CCO/N=C/[C@H]1CC[C@]2(O)C[C@@H](c3ccc(O)cc3)CC[C@]12C` [I-ax, (1S,3aS,5S,7aR)-1-[(E)-2-Dimethylaminoethoxyimino]methyl-5-(4-hydroxyphenyl)-7a-methylperhydroinden-3a-ol], the IC50 on Na^+,K^+ -ATPase [1] (setting [4]) was 39.8 µM. On Na^+,K^+ -ATPase [2] (setting [5]), the IC50 was 1.58 µM. Moreover, in test [3], the SBP was 156 +/- 4,6 mm Hg and the HR is given as 383 +/- 11,4 bEATS/min.

With `C[C@]12CC[C@H](c3ccc(CO)cc3)C[C@@]1(O)CC[C@@H]2/C=N/OCCN` [I-bb, (1S,3aS,5S,7aR)-1-[(E)-2-Aminoethoxyimino]methyl-5-(4-hydroxymethylphenyl)-7a-methylperhydroinden-3a-ol], the IC50 on Na^+,K^+ -ATPase [1] (setting [4]) was 25.1 µM; on Na^+,K^+ -ATPase [2] (setting [5]), 1.58 µM.

For `CN(C)CCO/N=C/[C@H]1CC[C@]2(O)C[C@@H](c3ccc(CO)cc3)CC[C@]12C` [I-bc, (1S,3aS,5S,7aR)-1-[(E)-2-Dimethylaminoethoxyimino]methyl-5-(4-hydroxymethylphenyl)-7a-methylperhydroinden-3a-ol], the IC50 at Na^+,K^+ -ATPase [1] (setting [4]) was 50.1 µM. Besides, the IC50 on Na^+,K^+ -ATPase [2] (setting [5]) is 5.01 µM. Besides, in test [3], the SBP was 160 +/- 7,8 mm Hg and the HR is given as 377 +/- 10,5 bEATS/min.

Regarding `Cc1ccc([C@H]2CC[C@]3(C)[C@@H](/C=N/OCCN)CC[C@]3(O)C2)cc1` [I-bg, (1S,3aS,5S,7aR)-1-[(E)-2-Aminoethoxyimino]methyl-5-(4-methylphenyl)-7a-methylperhydroinden-3a-ol oxalate], the values for the IC50 against Na^+,K^+ -ATPase [1] and at Na^+,K^+ -ATPase [2] were 31.6 µM and 3.98 µM, respectively.

As to `Cc1ccc([C@H]2CC[C@]3(C)[C@@H](/C=N/OCCN(C)C)CC[C@]3(O)C2)cc1` [I-bh, (1S,3aS,5S,7aR)-1-[(E)-2-Dimethylaminoethoxyimino]methyl-5-(4-methylphenyl)-7a-methylperhydroinden-3a-ol], the concentration for half-maximal inhibition (IC50) at Na^+,K^+ -ATPase [1] (setting [4]) is 50.1 µM; on Na^+,K^+ -ATPase [2] (setting [5]) it was 6.31 µM.

As for `CN(C)CCO/N=C/[C@H]1CC[C@]2(O)C/C(=C\CCO)CC[C@]12C` [I-bx, (1S,3aS,7aR)-1-[(E)-2-Dimethylaminoethoxyimino]methyl-5-[(Z)-3-hydroxypropyliden]-7a-methylperhydroinden-3a-ol], the IC50 is 63.1 µM at Na^+,K^+ -ATPase [1] (setting [4]) and 12.6 µM at Na^+,K^+ -ATPase [2] (setting [5]).

Consider `CN(C)CCO/N=C/[C@H]1CC[C@]2(O)C/C(=C/CCO)CC[C@]12C` [I-by, (1S,3aS,7aR)-1-[(E)-2-Dimethylaminoethoxyimino]methyl-5-[(E)-3-hydroxypropyliden]-7a-methylperhydroinden-3a-ol], for which the half-inhibitory concentration (IC50) on Na^+,K^+ -ATPase [1] (setting [4]) was 63.1 µM; on Na^+,K^+ -ATPase [2] (setting [5]), 20 µM.

As for `CN(C)CCONC[C@H]1CC[C@]2(O)C[C@@H](c3ccccc3)CC[C@]12C` [I-df, (1S,3aS,5S,7aR)-1-(2-Dimethylaminoethoxyamino)methyl-5-phenyl-7a-methylperhydroinden-3a-ol oxalate], the IC50 on Na^+,K^+ -ATPase [1] is 50.1 µM; at Na^+,K^+ -ATPase [2] it was 6.31 µM.

In the case of `CN(C)CCONC[C@H]1CC[C@]2(O)C[C@@H](c3cccc(O)c3)CC[C@]12C` [I-di, (1S,3aS,5S,7aR)-1-(2-Dimethylaminoethoxyamino)methyl-5-(3-hydroxyphenyl)-7a-methylperhydroinden-3a-ol oxalate], the figures for the IC50 against Na^+,K^+ -ATPase [1] and on Na^+,K^+ -ATPase [2] were 50.1 µM and 7.94 µM, respectively.

Broadly, the IC50 is the concentration at which inhibition is half-maximal.

These data come from patent publication US5705531A, “1,5-disubstituted 7A-methylperhydroinden-3A-ol derivatives, useful in treating cardiovascular disorders, processes for their preparation and pharmaceutical compositions containing the same” (Sigma-Tau Industrie Farmaceutiche Riunite S.p.A., priority 1994, dated 1998).
